Source: patent US4112228A, “7-(D-α-Hydroxy-2-arylacetamido)-3-(2-carboxyalkyl-2,3-dihydro-s-tri azolo-[4,3-b]pyridazin-3-on-6-ylthiomethyl)-3-cephem-4-carboxylic acids and derivatives” (priority 1977, dated 1978)
Converted amounts (≈) assume the structure as drawn. Like-named read-outs stand apart in the source and are kept apart here.

Columns and labels:
[1] = tested on: Kl. pneumoniae; assay: MIC by Steers' agar dilution method; format: cell-based; conditions: Klebsiella pneumoniae
[2] = tested on: Shig. sonnei; assay: MIC by Steers' agar dilution method; format: cell-based; conditions: Shigella sonnei, MHA
[3] = tested on: B. anthracis; assay: microbe, parasite or virus in culture; format: cell-based; conditions: Bacillus anthracis
[4] = Blood levels in mice after subcutaneous administration; format: in vivo; conditions: mouse, read-out: Blood level; for concentration at 0.25 h: 15'; for concentration at 0.5 h: 30'; for concentration at 1 h: 60'; for concentration at 2 h: 120'
Procedure: Groups of mice were administered subcutaneously graded doses of 40, 20 and 10 mg./kg..

[5] = tested on: S. aureus Smith; assay: Standard experimental infection in mice; format: in vivo; conditions: Table 6
[6] = tested on: E. cloacae A20464 (El-19); assay: Standard experimental infection in mice; format: in vivo; conditions: Run C-811
[7] = tested on: St. faecalis; assay: MIC by Steers' agar dilution method; conditions: Enterococcus faecalis
[8] = tested on: Ps. aeruginosa; assay: MIC by Steers' agar dilution method; conditions: Pseudomonas aeruginosa
[9] = tested on: Shig. dysenteriae; assay: MIC by Steers' agar dilution method; conditions: Shigella dysenteriae, MHA
[10] = tested on: Sal. enteritidis; assay: MIC by Steers' agar dilution method; conditions: Salmonella enterica
[11] = tested on: S. pyogenes; assay: MIC by Steers' agar dilution method
[12] = tested on: D. pneumoniae; assay: MIC by Steers' agar dilution method
[13] = tested on: S. typhimurium; assay: MIC by Steers' agar dilution method; conditions: Salmonella enterica
[14] = tested on: Citrobacter sp.; assay: MIC by Steers' agar dilution method
[15] = tested on: P. vulgaris A9436 (Pv-1); assay: Standard experimental infection (single sc treatment); conditions: for No. of survivors/No. tested: Run C-808, single sc

## Cn1nnnc1SCC1=C(C(=O)O)N2C(=O)[C@@H](NC(=O)[C@H](O)c3ccccc3)[C@H]2SC1 [Cefamandole, cefamandole, reference compound]
[1]; A9678, MHA, Table 1
  MIC: 3.1 µg/mL (≈ 6.7 µM)
[1]; A9867, MHA, Table 1
  MIC: 0.8 µg/mL (≈ 1.73 µM)
[1]; A9977, MHA, Table 1
  MIC: 0.2 µg/mL (≈ 0.432 µM)
[1]; A15130, MHA, Table 1
  MIC: 0.8 µg/mL (≈ 1.73 µM)
[1]; Kp-1 D11, MHA, Table 3
  MIC: 0.8 µg/mL (≈ 1.73 µM)
[1]; Kp-2 A9678, MHA, Table 3
  MIC: 1.6 µg/mL (≈ 3.46 µM)
[1]; Kp-3 A9977, HIA, Table 4
  MIC: 0.8 µg/mL (≈ 1.73 µM)
[1]; Kp-3 A9977, MHA, Table 3
  MIC: 0.8 µg/mL (≈ 1.73 µM)
[1]; Kp-3 A9977, MHA, Table 4
  MIC: 0.8 µg/mL (≈ 1.73 µM)
[1]; Kp-3 A9977, NA, Table 4
  MIC: 0.4 µg/mL (≈ 0.865 µM)
[1]; Kp-4 A15130, HIA, Table 4
  MIC: 0.8 µg/mL (≈ 1.73 µM)
[1]; Kp-4 A15130, MHA, Table 3
  MIC: 0.8 µg/mL (≈ 1.73 µM)
[1]; Kp-4 A15130, MHA, Table 4
  MIC: 0.8 µg/mL (≈ 1.73 µM)
[1]; Kp-4 A15130, NA, Table 4
  MIC: 0.8 µg/mL (≈ 1.73 µM)
[1]; Kp-7 A9867, MHA, Table 3
  MIC: 0.8 µg/mL (≈ 1.73 µM)
[1]; Kp-8 A20680, MHA, Table 3
  MIC: 12.5 µg/mL (≈ 27 µM)
[1]; Kp-9 A20636, MHA, Table 3
  MIC: 12.5 µg/mL (≈ 27 µM)
[1]; Kp-10 A20328, MHA, Table 3
  MIC: 3.1 µg/mL (≈ 6.7 µM)
[1]; Kp-11 A20330, MHA, Table 3
  MIC: 12.5 µg/mL (≈ 27 µM)
[1]; Kp-12 A21228, MHA, Table 3
  MIC: 6.3 µg/mL (≈ 13.6 µM)
[1]; strain not named (1st of 4), MHA, Example 10
  MIC: 3.1 µg/mL (≈ 6.7 µM)
[1]; strain not named (2nd of 4), MHA, Example 10
  MIC: 0.8 µg/mL (≈ 1.73 µM)
[1]; strain not named (3rd of 4), MHA, Example 10
  MIC: 0.8 µg/mL (≈ 1.73 µM)
[1]; strain not named (4th of 4), MHA, Example 10
  MIC: 0.8 µg/mL (≈ 1.73 µM)
[2]; A9516, Table 1
  MIC: 0.05 µg/mL (≈ 0.108 µM)
[2]; Example 10
  MIC: 0.2 µg/mL (≈ 0.432 µM)
[2]; Ss-1 Yale, Table 3
  MIC: 0.1 µg/mL (≈ 0.216 µM)
[3]; Ba-3 A9504, HIA, Table 4
  MIC: 0.2 µg/mL (≈ 0.432 µM)
[3]; Ba-3 A9504, MHA, Table 4
  MIC: 0.4 µg/mL (≈ 0.865 µM)
[3]; Ba-3 A9504, NA, Table 4
  MIC: 0.4 µg/mL (≈ 0.865 µM)
[3]; MHA, Example 10
  MIC: 0.4 µg/mL (≈ 0.865 µM)
[4]; sc 10 mg./kg.
  concentration at 0.25 h: 3800 ng/mL
  concentration at 0.5 h: 1500 ng/mL
  concentration at 1 h: 300 ng/mL
  concentration at 2 h: 100 ng/mL
[4]; sc 20 mg./kg.
  concentration at 0.25 h: 9500 ng/mL
  concentration at 0.5 h: 4100 ng/mL
  concentration at 1 h: 1000 ng/mL
  concentration at 2 h: < 100 ng/mL
[4]; sc 40 mg./kg.
  concentration at 0.25 h: 18000 ng/mL
  concentration at 0.5 h: 11000 ng/mL
  concentration at 1 h: 3900 ng/mL
  concentration at 2 h: 300 ng/mL
[5]; 0.4 mg./kg.
  No. of survivors/No. tested: 1/5
[5]; 1.6 mg./kg.
  No. of survivors/No. tested: 5/5
[5]; 6.3 mg./kg.
  No. of survivors/No. tested: 5/5
[5]; 25 mg./kg.
  No. of survivors/No. tested: 5/5
[5]; Staphylococcus aureus, read-out: PD50
  ED50: 0.6 mg/kg
[6]; Enterobacter cloacae, read-out: PD50
  ED50: 0.8 mg/kg
[6]; 0.4 mg./kg.
  No. of survivors/No. tested: 1/5
[6]; 1.6 mg./kg.
  No. of survivors/No. tested: 4/5
[6]; 6.3 mg./kg.
  No. of survivors/No. tested: 5/5
[6]; 100 mg./kg.
  No. of survivors/No. tested: 5/5
[7]
  MIC: 50 µg/mL (≈ 108 µM)
[7]; MHA, Example 10
  MIC: > 100 µg/mL
[7]; Sf-3 S. faecalis A9536, HIA, Table 4
  MIC: 100 µg/mL (≈ 216 µM)
[7]; Sf-3 S. faecalis A9536, MHA, Table 4
  MIC: 100 µg/mL (≈ 216 µM)
[7]; Sf-3 S. faecalis A9536, NA, Table 4
  MIC: > 100 µg/mL
[8]; A9843, MHA, Table 1
  MIC: > 100 µg/mL
[8]; A9930, MHA, Table 1
  MIC: > 100 µg/mL
[8]; Pa-3 A9930, HIA, Table 4
  MIC: > 100 µg/mL
[8]; Pa-3 A9930, MHA, Table 4
  MIC: > 100 µg/mL
[8]; Pa-3 A9930, NA, Table 4
  MIC: > 100 µg/mL
[8]; strain not given (1st of 2), MHA, Example 10
  MIC: > 100 µg/mL
[8]; strain not named (2nd of 2), MHA, Example 10
  MIC: > 100 µg/mL
[9]; Example 10
  MIC: 0.1 µg/mL (≈ 0.216 µM)
[9]; Table 1
  MIC: 0.1 µg/mL (≈ 0.216 µM)
[9]; Sd-1, Table 3
  MIC: 0.2 µg/mL (≈ 0.432 µM)
[10]; A9531, MHA, Table 1
  MIC: 0.1 µg/mL (≈ 0.216 µM)
[10]; MHA, Example 10
  MIC: 0.05 µg/mL (≈ 0.108 µM)
[10]; Se-1 A9531, MHA, Table 3
  MIC: 0.2 µg/mL (≈ 0.432 µM)
[11]
  MIC: 0.1 µg/mL (≈ 0.216 µM)
[11]; Sp-2 Dick, MHA, Table 2
  MIC: 0.1 µg/mL (≈ 0.216 µM)
[11]; Sp-3 A9604, MHA, Table 2
  MIC: 0.1 µg/mL (≈ 0.216 µM)
[11]; Sp-5 A15040, MHA, Table 2
  MIC: 0.1 µg/mL (≈ 0.216 µM)
[11]; Sp-6 A20066, MHA, Table 2
  MIC: 0.1 µg/mL (≈ 0.216 µM)
[11]; Sp-7 Dig 7, MHA, Table 2
  MIC: 0.1 µg/mL (≈ 0.216 µM)
[11]; Sp-8 A15041, MHA, Table 2
  MIC: 0.1 µg/mL (≈ 0.216 µM)
[11]; Sp-9 A20201, MHA, Table 2
  MIC: 0.1 µg/mL (≈ 0.216 µM)
[11]; Sp-10 A20202, MHA, Table 2
  MIC: 0.1 µg/mL (≈ 0.216 µM)
[11]; Streptococcus pyogenes
  MIC: 0.1 µg/mL (≈ 0.216 µM)
[12]; Dp-2 Type I Neufeld, MHA, Table 2
  MIC: 0.2 µg/mL (≈ 0.432 µM)
[12]; Dp-3 Type III, MHA, Table 2
  MIC: 0.2 µg/mL (≈ 0.432 µM)
[12]; Dp-4 A9585, MHA, Table 2
  MIC: 0.2 µg/mL (≈ 0.432 µM)
[12]; Dp-5 A15069, MHA, Table 2
  MIC: 0.2 µg/mL (≈ 0.432 µM)
[12]; Dp-6 A20167, MHA, Table 2
  MIC: 0.2 µg/mL (≈ 0.432 µM)
[12]; Dp-7 A20759, MHA, Table 2
  MIC: 0.2 µg/mL (≈ 0.432 µM)
[12]; Dp-8 A20769, MHA, Table 2
  MIC: 0.2 µg/mL (≈ 0.432 µM)
[12]; Dp-9 A20770, MHA, Table 2
  MIC: 0.2 µg/mL (≈ 0.432 µM)
[12]; Streptococcus pneumoniae
  MIC: 0.2 µg/mL (≈ 0.432 µM)
[13]
  MIC: 0.2 µg/mL (≈ 0.432 µM)
[14]; Citrobacter
  MIC: 1.6 µg/mL (≈ 3.46 µM)
[14]; Cx-2 A20694, MHA, Table 3
  MIC: 1.6 µg/mL (≈ 3.46 µM)
[14]; Cx-3 A20695, MHA, Table 3
  MIC: 1.6 µg/mL (≈ 3.46 µM)
[15]; Proteus vulgaris, in Mus musculus, sc, read-out: PD50
  ED50: 36 mg/kg
[15]; 0.8 mg./kg.
  No. of survivors/No. tested: 0/5
[15]; 3.1 mg./kg.
  No. of survivors/No. tested: 0/5
[15]; 12.5 mg./kg.
  No. of survivors/No. tested: 1/5
[15]; 50 mg./kg.
  No. of survivors/No. tested: 3/5
